PubChem BioAssay AID1919001 (Molecular Pharmacology Branch, DTP, NCI, 2023)
Blank lines part the entries; values can stand above or below the compound they belong to.

Tested on: 699152-130-R-J1-PDC complex spheroid growth
Experiment: Anticancer human tumor 699152-130-R-J1-PDC patient-derived pancreatic carcinoma cell line growth inhibition [AhR]
Details: for IC50: curve of first compound; for viability, T/C: stronger effect = lower value
Procedure, shortened: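 Complex tumor spheroids co-cultured with HUVEC and human MSC stroma; AhR antagonists tested in combination with standard-of-care and investigational agents. Top concentration at or near clinical Cmax (else 10 microM), half-log dilutions; growth expressed as percent test/control.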

[1] = second compound 0.1 µM, first compound 0.0316 µM
[2] = second compound 0.1 µM, first compound 0.1 µM
[3] = second compound 0.1 µM, first compound 0.316 µM
[4] = second compound 0.1 µM, first compound 1 µM
[5] = second compound 0.1 µM, first compound 3.16 µM
[6] = second compound 0.1 µM, first compound 10 µM
[7] = second compound 0.316 µM, first compound 0.0316 µM
[8] = second compound 0.316 µM, first compound 0.1 µM
[9] = second compound 0.316 µM, first compound 0.316 µM
[10] = second compound 0.316 µM, first compound 1 µM
[11] = second compound 0.316 µM, first compound 3.16 µM
[12] = second compound 0.316 µM, first compound 10 µM
[13] = second compound 1 µM, first compound 0.0316 µM
[14] = second compound 1 µM, first compound 0.1 µM
[15] = second compound 1 µM, first compound 0.316 µM
[16] = second compound 1 µM, first compound 1 µM
[17] = second compound 1 µM, first compound 3.16 µM
[18] = second compound 1 µM, first compound 10 µM
[19] = second compound 3.16 µM, first compound 0.0316 µM
[20] = second compound 3.16 µM, first compound 0.1 µM
[21] = second compound 3.16 µM, first compound 0.316 µM
[22] = second compound 3.16 µM, first compound 1 µM
[23] = second compound 3.16 µM, first compound 3.16 µM
[24] = second compound 3.16 µM, first compound 10 µM
[25] = second compound 10 µM, first compound 0.0316 µM
[26] = second compound 10 µM, first compound 0.1 µM
[27] = second compound 10 µM, first compound 0.316 µM
[28] = second compound 10 µM, first compound 1 µM
[29] = second compound 10 µM, first compound 3.16 µM
[30] = second compound 10 µM, first compound 10 µM
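Further: compound exposure lasted 7 days after spheroids had grown for 3 days.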

IC50 (second compound 0.1 µM): 807 nM
IC50 (second compound 0.316 µM): 724 nM
IC50 (second compound 1 µM): 739 nM
IC50 (second compound 3.16 µM): 694 nM
IC50 (second compound 10 µM): 542 nM
SMILES: NS(=O)(=O)OCC1CC(n2ccc3c(NC4CCc5ccccc54)ncnc32)CC1O (stereo not given) + Cc1ccccc1N=Nc1ccc(NC(=O)c2ccnn2C)c(C)c1
viability, T/C [1]: 98.3%
viability, T/C [2]: 107%
viability, T/C [3]: 107%
viability, T/C [4]: 37.5%
viability, T/C [5]: 21.6%
viability, T/C [6]: 25.2%
viability, T/C [7]: 102%
viability, T/C [8]: 103%
viability, T/C [9]: 104%
viability, T/C [10]: 29.4%
viability, T/C [11]: 18.5%
viability, T/C [12]: 20.1%
viability, T/C [13]: 105%
viability, T/C [14]: 116%
viability, T/C [15]: 105%
viability, T/C [16]: 30.3%
viability, T/C [17]: 20.2%
viability, T/C [18]: 27.1%
viability, T/C [19]: 115%
viability, T/C [20]: 115%
viability, T/C [21]: 96.7%
viability, T/C [22]: 28.4%
viability, T/C [23]: 20.8%
viability, T/C [24]: 24.9%
viability, T/C [25]: 122%
viability, T/C [26]: 125%
viability, T/C [27]: 67.3%
viability, T/C [28]: 32.9%
viability, T/C [29]: 27.2%
viability, T/C [30]: 30.8%

IC50 (second compound 0.1 µM): > 10000 nM
IC50 (second compound 0.316 µM): > 10000 nM
IC50 (second compound 1 µM): > 10000 nM
IC50 (second compound 3.16 µM): > 10000 nM
IC50 (second compound 10 µM): > 10000 nM
SMILES: CC(C)c1c(-c2ccccc2)nc2c(C#N)c[nH]n2c1=O + CC(CO)NC(=O)c1cc(-c2ccc(Cl)cc2)nn(-c2cnn(C)c2)c1=O
viability, T/C [1]: 97%
viability, T/C [2]: 97.8%
viability, T/C [3]: 109%
viability, T/C [4]: 100%
viability, T/C [5]: 94.9%
viability, T/C [6]: 95.5%
viability, T/C [7]: 93.6%
viability, T/C [8]: 98.7%
viability, T/C [9]: 86.4%
viability, T/C [10]: 87.9%
viability, T/C [11]: 93.3%
viability, T/C [12]: 86.6%
viability, T/C [13]: 99.7%
viability, T/C [14]: 104%
viability, T/C [15]: 105%
viability, T/C [16]: 97.3%
viability, T/C [17]: 85.5%
viability, T/C [18]: 86.8%
viability, T/C [19]: 92.4%
viability, T/C [20]: 90.3%
viability, T/C [21]: 94.8%
viability, T/C [22]: 95.4%
viability, T/C [23]: 83.5%
viability, T/C [24]: 79.5%
viability, T/C [25]: 95.6%
viability, T/C [26]: 100%
viability, T/C [27]: 82.1%
viability, T/C [28]: 82.7%
viability, T/C [29]: 85%
viability, T/C [30]: 79.8%

IC50 (second compound 0.1 µM): > 300 nM
IC50 (second compound 0.316 µM): > 300 nM
IC50 (second compound 1 µM): > 300 nM
IC50 (second compound 3.16 µM): > 300 nM
IC50 (second compound 10 µM): > 300 nM
SMILES: Nc1ncn(C2CC(O)C(CO)S2)c(=O)n1 (stereo not given) + CC(CO)NC(=O)c1cc(-c2ccc(Cl)cc2)nn(-c2cnn(C)c2)c1=O
viability, T/C (second compound 0.1 µM, first compound 0.000949 µM): 98%
viability, T/C (second compound 0.1 µM, first compound 0.003 µM): 104%
viability, T/C (second compound 0.1 µM, first compound 0.00949 µM): 85.7%
viability, T/C (second compound 0.1 µM, first compound 0.03 µM): 103%
viability, T/C (second compound 0.1 µM, first compound 0.0949 µM): 97.8%
viability, T/C (second compound 0.1 µM, first compound 0.3 µM): 94.2%
viability, T/C (second compound 0.316 µM, first compound 0.000949 µM): 89.6%
viability, T/C (second compound 0.316 µM, first compound 0.003 µM): 111%
viability, T/C (second compound 0.316 µM, first compound 0.00949 µM): 105%
viability, T/C (second compound 0.316 µM, first compound 0.03 µM): 93.1%
viability, T/C (second compound 0.316 µM, first compound 0.0949 µM): 93.8%
viability, T/C (second compound 0.316 µM, first compound 0.3 µM): 87.1%
viability, T/C (second compound 1 µM, first compound 0.000949 µM): 93.8%
viability, T/C (second compound 1 µM, first compound 0.003 µM): 101%
viability, T/C (second compound 1 µM, first compound 0.00949 µM): 89.1%
viability, T/C (second compound 1 µM, first compound 0.03 µM): 95.3%
viability, T/C (second compound 1 µM, first compound 0.0949 µM): 94.1%
viability, T/C (second compound 1 µM, first compound 0.3 µM): 86.1%
viability, T/C (second compound 3.16 µM, first compound 0.000949 µM): 86.3%
viability, T/C (second compound 3.16 µM, first compound 0.003 µM): 88%
viability, T/C (second compound 3.16 µM, first compound 0.00949 µM): 91.8%
viability, T/C (second compound 3.16 µM, first compound 0.03 µM): 88.9%
viability, T/C (second compound 3.16 µM, first compound 0.0949 µM): 90.1%
viability, T/C (second compound 3.16 µM, first compound 0.3 µM): 85%
viability, T/C (second compound 10 µM, first compound 0.000949 µM): 80.7%
viability, T/C (second compound 10 µM, first compound 0.003 µM): 91.8%
viability, T/C (second compound 10 µM, first compound 0.00949 µM): 84.6%
viability, T/C (second compound 10 µM, first compound 0.03 µM): 87.2%
viability, T/C (second compound 10 µM, first compound 0.0949 µM): 87%
viability, T/C (second compound 10 µM, first compound 0.3 µM): 86%
